According to paper PMC10504751, “Chalcone/1,3,4-Oxadiazole/Benzimidazole hybrids as novel anti-proliferative agents inducing apoptosis and inhibiting EGFR & BRAFV^600E” (BMC Chemistry, 2023):

Assays:
Test in all cases: NCI one-dose SRB anti-proliferative screen
Type in all cases: cell-based
HOP-62 = details: Homo sapiens; HOP-62 (Non-Small Cell Lung Cancer), NCI one dose 10 µM; read-out: Cell growth inhibition %
Summary of the method: (§1)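 Single dose, 10 µM; SRB colorimetric read-out; run as part of the 60-line, nine-subpanel tumour panel.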

TK-10 = details: Homo sapiens; TK-10 (Renal Cancer), NCI one dose 10 µM; read-out: Cell growth inhibition %
Summary of the method: as §1

ACHN = details: Homo sapiens; ACHN (Renal Cancer), NCI one dose 10 µM; read-out: Cell growth inhibition %
Summary of the method: as §1

SF-539 = details: Homo sapiens; SF-539 (CNS Cancer), NCI one dose 10 µM; read-out: Cell growth inhibition %
Summary of the method: as §1

SK-MEL-28 = details: Homo sapiens; SK-MEL-28 (Melanoma), NCI one dose 10 µM; read-out: Cell growth inhibition %
Summary of the method: as §1

M14 = details: Homo sapiens; M14 (Melanoma), NCI one dose 10 µM; read-out: Cell growth inhibition %
Summary of the method: as §1

LOX IMVI = details: Homo sapiens, LOX IMIV (Melanoma), NCI one dose 10 µM, read-out: Cell growth inhibition %
Summary of the method: as §1

HT29 = details: Homo sapiens, HT-29; HT29 (Colon Cancer), NCI one dose 10 µM; read-out: Cell growth inhibition %
Summary of the method: as §1

MDA-MB-435 = details: Homo sapiens; MDA-MB-435 (Melanoma), NCI one dose 10 µM; read-out: Cell growth inhibition %
Summary of the method: as §1

SN12C = details: Homo sapiens, SN 12C (Renal Cancer), NCI one dose 10 µM, read-out: Cell growth inhibition %
Summary of the method: as §1

SK-OV-3 = details: Homo sapiens; SK-OV-3 (Ovarian Cancer), NCI one dose 10 µM; read-out: Cell growth inhibition %
Summary of the method: as §1

RPMI-8226 = details: Homo sapiens; RPMI-8226 (Leukemia), NCI one dose 10 µM; read-out: Cell growth inhibition %
Summary of the method: as §1

SK-MEL-5 = details: Homo sapiens; SK-MEL-5 (Melanoma), NCI one dose 10 µM; read-out: Cell growth inhibition %
Summary of the method: as §1

PC-3 = details: Homo sapiens; PC-3 (Prostate Cancer), NCI one dose 10 µM; read-out: Cell growth inhibition %
Summary of the method: as §1

MDA-MB-468 = details: Homo sapiens; MDA-MB-468 (Breast Cancer), NCI one dose 10 µM; read-out: Cell growth inhibition %
Summary of the method: as §1

NCI-H460 = details: Homo sapiens; NCI-H460 (Non-Small Cell Lung Cancer), NCI one dose 10 µM; read-out: Cell growth inhibition %
Summary of the method: as §1

BT-549 = details: Homo sapiens; BT-549 (Breast Cancer), NCI one dose 10 µM; read-out: Cell growth inhibition %
Summary of the method: as §1

SW-620 = details: Homo sapiens; SW-620 (Colon Cancer), NCI one dose 10 µM; read-out: Cell growth inhibition %
Summary of the method: as §1

CCRF-CEM = details: Homo sapiens; CCRF-CEM (Leukemia), NCI one dose 10 µM; read-out: Cell growth inhibition %
Summary of the method: as §1

SNB-19 = details: Homo sapiens; SNB-19 (CNS Cancer), NCI one dose 10 µM; read-out: Cell growth inhibition %
Summary of the method: as §1

MALME-3M = details: Homo sapiens; MALME-3M (Melanoma), NCI one dose 10 µM; read-out: Cell growth inhibition %
Summary of the method: as §1

UACC-257 = details: Homo sapiens; UACC-257 (Melanoma), NCI one dose 10 µM; read-out: Cell growth inhibition %
Summary of the method: as §1

OVCAR-5 = details: Homo sapiens; OVCAR-5 (Ovarian Cancer), NCI one dose 10 µM; read-out: Cell growth inhibition %
Summary of the method: as §1

OVCAR-4 = details: Homo sapiens; OVCAR-4 (Ovarian Cancer), NCI one dose 10 µM; read-out: Cell growth inhibition %
Summary of the method: as §1

NCI/ADR-RES = details: Homo sapiens; NCI/ADR-RES (Ovarian Cancer), NCI one dose 10 µM; read-out: Cell growth inhibition %
Summary of the method: as §1

OVCAR-8 = details: Homo sapiens; OVCAR-8 (Ovarian Cancer), NCI one dose 10 µM; read-out: Cell growth inhibition %
Summary of the method: as §1

EKVX = details: Homo sapiens; EKVX (Non-Small Cell Lung Cancer), NCI one dose 10 µM; read-out: Cell growth inhibition %
Summary of the method: as §1

UACC-62 = details: Homo sapiens; UACC-62 (Melanoma), NCI one dose 10 µM; read-out: Cell growth inhibition %
Summary of the method: as §1

NCI-H226 = details: Homo sapiens; NCI-H226 (Non-Small Cell Lung Cancer), NCI one dose 10 µM; read-out: Cell growth inhibition %
Summary of the method: as §1

SR = details: Homo sapiens; SR (Leukemia), NCI one dose 10 µM; read-out: Cell growth inhibition %
Summary of the method: as §1

HL-60(TB) = details: Homo sapiens; HL-60(TB) (Leukemia), NCI one dose 10 µM; read-out: Cell growth inhibition %
Summary of the method: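 Activity reflects a single-point exposure at 10 µM, with cell mass determined by a sulforhodamine B dye assay.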

UO-31 = details: Homo sapiens; UO-31 (Renal Cancer), NCI one dose 10 µM; read-out: Cell growth inhibition %
Summary of the method: as §1

Row | SMILES | inhibition at 10 µM (HOP-62) [%] | inhibition at 10 µM (TK-10) [%] | inhibition at 10 µM (ACHN) [%] | inhibition at 10 µM (SF-539) [%] | inhibition at 10 µM (SK-MEL-28) [%] | inhibition at 10 µM (M14) [%] | inhibition at 10 µM (LOX IMVI) [%] | inhibition at 10 µM (HT29) [%] | inhibition at 10 µM (MDA-MB-435) [%] | inhibition at 10 µM (SN12C) [%] | inhibition at 10 µM (SK-OV-3) [%] | inhibition at 10 µM (RPMI-8226) [%] | inhibition at 10 µM (SK-MEL-5) [%] | inhibition at 10 µM (PC-3) [%] | inhibition at 10 µM (MDA-MB-468) [%] | inhibition at 10 µM (NCI-H460) [%] | inhibition at 10 µM (BT-549) [%] | inhibition at 10 µM (SW-620) [%] | inhibition at 10 µM (CCRF-CEM) [%] | inhibition at 10 µM (SNB-19) [%] | other results
1 | COc1ccc(-c2nc3cc(-c4nnc(SCC(=O)Nc5ccc(C(=O)/C=C/c6ccccc6)cc5)o4)ccc3[nH]2)cc1OC [Compound 7p, 2-{5-[2-(3,4-Dimethoxyphenyl)-1 H-benzo[d]imidazol-5-yl]-1,3,4-oxadiazol-2-ylthio}-N-{4-[(E)-3-phenylacryloyl]phenyl}acetamide] | 0 | 0 | 3.66 | 16.4 | 0 | 0 | 112 | 0 | 0 | 5.25 | 0 | 36 | 4.49 | 0 | 0 | 0 | 5.86 | 0 | 11.6 | 0 | inhibition at 10 µM (MALME-3M): 2.95%; inhibition at 10 µM (UACC-257): 0%; inhibition at 10 µM (OVCAR-5): 0.55%; inhibition at 10 µM (OVCAR-4): 0%; inhibition at 10 µM (NCI/ADR-RES): 0%; inhibition at 10 µM (OVCAR-8): 0%; inhibition at 10 µM (EKVX): 0%; inhibition at 10 µM (UACC-62): 4.99%; inhibition at 10 µM (NCI-H226): 1.84%; inhibition at 10 µM (SR): 16.4%; inhibition at 10 µM (HL-60(TB)): 0%; inhibition at 10 µM (UO-31): 11.5%
2 | COc1ccc(-c2nc3cc(-c4nnc(SCC(=O)Nc5ccc(C(=O)/C=C/c6ccc(Cl)cc6)cc5)o4)ccc3[nH]2)cc1OC [Compound 7q, 2-{5-[2-(3,4-Dimethoxyphenyl)-1 H-benzo[d]imidazol-5-yl]-1,3,4-oxadiazol-2-ylthio}-N-{4-[(E)-3-(4-chlorophenyl)acryloyl]phenyl}acetamide] | 0 | 0 | 5.74 | 16.2 | 0 | 0 | 96.8 | 0 | 0 | 5.1 | 0 | 24.5 | 2.38 | 2.29 | 0 | 0 | 0 | 0 | 0 | 0 | inhibition at 10 µM (MALME-3M): 4.86%; inhibition at 10 µM (UACC-257): 0%; inhibition at 10 µM (OVCAR-5): 4.8%; inhibition at 10 µM (OVCAR-4): 0%; inhibition at 10 µM (NCI/ADR-RES): 0%; inhibition at 10 µM (OVCAR-8): 0%; inhibition at 10 µM (EKVX): 8.14%; inhibition at 10 µM (UACC-62): 1.95%; inhibition at 10 µM (NCI-H226): 1.46%; inhibition at 10 µM (SR): 27%; inhibition at 10 µM (HL-60(TB)): 11.3%; inhibition at 10 µM (UO-31): 13%
3 | COc1ccc(/C=C/C(=O)c2ccc(NC(=O)CSc3nnc(-c4ccc5[nH]c(-c6ccc(OC)c(OC)c6)nc5c4)o3)cc2)cc1 [Compound 7r, 2-{5-[2-(3,4-Dimethoxyphenyl)-1 H-benzo[d]imidazol-5-yl]-1,3,4-oxadiazol-2-ylthio}-N-{4-[(E)-3-(4-methoxyphenyl)acryloyl]phenyl}acetamide] | 0 | 0 | 2.15 | 7.36 | 0 | 0 | 20.2 | 0 | 0 | 6.98 | 0 | 14.7 | 10.8 | 7.58 | 0 | 0 | 5.47 | 0 | 38.6 | 0 | inhibition at 10 µM (MALME-3M): 8.71%; inhibition at 10 µM (UACC-257): 0%; inhibition at 10 µM (OVCAR-5): 0%; inhibition at 10 µM (OVCAR-4): 0%; inhibition at 10 µM (NCI/ADR-RES): 0%; inhibition at 10 µM (OVCAR-8): 11.1%; inhibition at 10 µM (EKVX): 3.51%; inhibition at 10 µM (UACC-62): 11%; inhibition at 10 µM (NCI-H226): 2.08%; inhibition at 10 µM (SR): 30.6%; inhibition at 10 µM (HL-60(TB)): 20.9%; inhibition at 10 µM (UO-31): 12.4%
4 | COc1cc(-c2nc3cc(-c4nnc(SCC(=O)Nc5ccc(C(=O)/C=C/c6ccccc6)cc5)o4)ccc3[nH]2)cc(OC)c1OC [Compound 7u, 2-{5-[2-(3,4,5-Trimethoxyphenyl)-1 H-benzo[d]imidazol-5-yl]-1,3,4-oxadiazol-2-ylthio}-N-{4-[(E)-3-phenylacryloyl]phenyl}acetamide] | 0 | 0 | 1.08 | 13.3 | 0 | 0 | 22 | 0 | 6.83 | 13.2 | 0 | 24.2 | 5.99 | 9.18 | 0 | 0 | 28.9 | 0 | 21.9 | 0 | inhibition at 10 µM (MALME-3M): 2.82%; inhibition at 10 µM (UACC-257): 0%; inhibition at 10 µM (OVCAR-5): 0%; inhibition at 10 µM (OVCAR-4): 0%; inhibition at 10 µM (NCI/ADR-RES): 0%; inhibition at 10 µM (OVCAR-8): 10.6%; inhibition at 10 µM (EKVX): 0%; inhibition at 10 µM (UACC-62): 8.01%; inhibition at 10 µM (NCI-H226): 10.4%; inhibition at 10 µM (SR): 40.3%; inhibition at 10 µM (HL-60(TB)): 5.25%; inhibition at 10 µM (UO-31): 21%
